Laboratory results taken from ChEMBL document CHEMBL1159136, “Dipeptide mimetics can substitute for the receptor activation domain resulting in highly potent analogues of hPTH(136)” (Bioorg Med Chem Lett, 1996).
Square brackets hold non-standard residues; d marks the D form. Peptide text beside a SMILES is read from it. * marks the point of attachment. X6 = CC(=O)N(C(=O)[C@H](C)N)[C@H](C(=O)*)C(C)C; X7 = C[C@H](/C=C(\Cl)[C@H](C)N)C(=O)*; X5 = C[C@H](/C=C(\F)[C@H](C)N)C(=O)*; X4 = CC(=O)N(CC(=O)*)C(=O)[C@H](C)N; NMeV = CN[C@H](C(=O)O)C(C)C; N(iPr)Gly = CC(C)NCC(=O)O; NMeA = CN[C@@H](C)C(=O)O

Assays:
OK-1 [1] = test: Accumulation of cyclic AMP in OK-1 cells.; assay type: functional, cell-based, opossum; conditions: opossum, OK-1
OK-1 [2] = test: Compound was evaluated for the intrinsic activity for accumulation of cyclic AMP in OK-1 cells.; assay type: functional, opossum
OK-1 [3] = test: Displacement of [125I]-chick PTHrP-(1-36)-NH2 from opossum (OK-1) kidney cells; assay type: functional
UMR106-06 [4] = test: Compound was evaluated for the intrinsic activity for accumulation of cyclic AMP in UMR10606 (rat osteosarcoma) cells.; assay type: functional
UMR106-06 [5] = test: Compound was evaluated for the accumulation of cyclic AMP in UMR10606 (rat osteosarcoma) cells.; assay type: functional, cell-based; conditions: Rattus norvegicus, UMR106-06

| SMILES | EC50 (OK-1 [1]) [nM] | EC50 (UMR106-06 [5]) [nM] | Intrinsic activity (OK-1 [2]) | pKD (OK-1 [3]) | Intrinsic activity (UMR106-06 [4]) |
| --- | --- | --- | --- | --- | --- |
| CC[C@H](C)[C@H](NC(=O)[C@H](CCC(=O)O)NC(=O)[C@H](CO)NC(=O)CN(C(=O)[C@H](C)N)C(C)C)C(=O)N[C@@H](CCC(N)=O)C(=O)N[C@@H](CC(C)C)C(=O)N[C@@H](CCSC)C(=O)N[C@@H](Cc1c[nH]cn1)C(=O)N[C@@H](CC(N)=O)C(=O)N[C@@H](CC(C)C)C(=O)NCC(=O)N[C@@H](CCCCN)C(=O)N[C@@H](Cc1c[nH]cn1)C(=O)N[C@@H](CC(C)C)C(=O)N[C@@H](CC(N)=O)C(=O)N[C@@H](CO)C(=O)N[C@@H](CCSC)C(=O)N[C@@H](CCC(=O)O)C(=O)N[C@@H](CCCN=C(N)N)C(=O)N[C@H](C(=O)N[C@@H](CCC(=O)O)C(=O)N[C@@H](Cc1c[nH]c2ccccc12)C(=O)N[C@@H](CC(C)C)C(=O)N[C@@H](CCCN=C(N)N)C(=O)N[C@@H](CCCCN)C(=O)N[C@@H](CCCCN)C(=O)N[C@@H](CC(C)C)C(=O)N[C@@H](CCC(N)=O)C(=O)N[C@@H](CC(=O)O)C(=O)N[C@H](C(=O)N[C@@H](Cc1c[nH]cn1)C(=O)N[C@@H](CC(N)=O)C(=O)N[C@@H](Cc1ccccc1)C(=O)N[C@H](C(=O)N[C@@H](C)C(N)=O)C(C)C)C(C)C)C(C)C (H-A[N(iPr)Gly]SEIQLMHNLGKHLNSMERVEWLRKKLQDVHNFVA-NH2) | 97.2 | 30 | 0.5 | 7.4 | 0.05 |
| CC[C@H](C)[C@H](NC(=O)[C@H](CCC(=O)O)NC(=O)[C@H](CO)NC(=O)CN(C(C)=O)C(=O)[C@H](C)N)C(=O)N[C@@H](CCC(N)=O)C(=O)N[C@@H](CC(C)C)C(=O)N[C@@H](CCSC)C(=O)N[C@@H](Cc1c[nH]cn1)C(=O)N[C@@H](CC(N)=O)C(=O)N[C@@H](CC(C)C)C(=O)NCC(=O)N[C@@H](CCCCN)C(=O)N[C@@H](Cc1c[nH]cn1)C(=O)N[C@@H](CC(C)C)C(=O)N[C@@H](CC(N)=O)C(=O)N[C@@H](CO)C(=O)N[C@@H](CCSC)C(=O)N[C@@H](CCC(=O)O)C(=O)N[C@@H](CCCN=C(N)N)C(=O)N[C@H](C(=O)N[C@@H](CCC(=O)O)C(=O)N[C@@H](Cc1c[nH]c2ccccc12)C(=O)N[C@@H](CC(C)C)C(=O)N[C@@H](CCCN=C(N)N)C(=O)N[C@@H](CCCCN)C(=O)N[C@@H](CCCCN)C(=O)N[C@@H](CC(C)C)C(=O)N[C@@H](CCC(N)=O)C(=O)N[C@@H](CC(=O)O)C(=O)N[C@H](C(=O)N[C@@H](Cc1c[nH]cn1)C(=O)N[C@@H](CC(N)=O)C(=O)N[C@@H](Cc1ccccc1)C(=O)N[C@H](C(=O)N[C@@H](C)C(N)=O)C(C)C)C(C)C)C(C)C (X4-SEIQLMHNLGKHLNSMERVEWLRKKLQDVHNFVA-NH2) | 117 | 958 | 0.2 | 7.1 | 0.8 |
| CC[C@H](C)[C@H](NC(=O)[C@H](CCC(=O)O)NC(=O)[C@H](CO)NC(=O)[C@H](C)/C=C(\F)[C@H](C)N)C(=O)N[C@@H](CCC(N)=O)C(=O)N[C@@H](CC(C)C)C(=O)N[C@@H](CCSC)C(=O)N[C@@H](Cc1c[nH]cn1)C(=O)N[C@@H](CC(N)=O)C(=O)N[C@@H](CC(C)C)C(=O)NCC(=O)N[C@@H](CCCCN)C(=O)N[C@@H](Cc1c[nH]cn1)C(=O)N[C@@H](CC(C)C)C(=O)N[C@@H](CC(N)=O)C(=O)N[C@@H](CO)C(=O)N[C@@H](CCSC)C(=O)N[C@@H](CCC(=O)O)C(=O)N[C@@H](CCCN=C(N)N)C(=O)N[C@H](C(=O)N[C@@H](CCC(=O)O)C(=O)N[C@@H](Cc1c[nH]c2ccccc12)C(=O)N[C@@H](CC(C)C)C(=O)N[C@@H](CCCN=C(N)N)C(=O)N[C@@H](CCCCN)C(=O)N[C@@H](CCCCN)C(=O)N[C@@H](CC(C)C)C(=O)N[C@@H](CCC(N)=O)C(=O)N[C@@H](CC(=O)O)C(=O)N[C@H](C(=O)N[C@@H](Cc1c[nH]cn1)C(=O)N[C@@H](CC(N)=O)C(=O)N[C@@H](Cc1ccccc1)C(=O)N[C@H](C(=O)N[C@@H](C)C(N)=O)C(C)C)C(C)C)C(C)C (X5-SEIQLMHNLGKHLNSMERVEWLRKKLQDVHNFVA-NH2) | 9.1 | 13 | 0.6 | 8.2 | 0.95 |
| CC[C@H](C)[C@H](NC(=O)[C@H](CCC(=O)O)NC(=O)[C@H](CO)NC(=O)[C@H](C(C)C)N(C(C)=O)C(=O)[C@H](C)N)C(=O)N[C@@H](CCC(N)=O)C(=O)N[C@@H](CC(C)C)C(=O)N[C@@H](CCSC)C(=O)N[C@@H](Cc1c[nH]cn1)C(=O)N[C@@H](CC(N)=O)C(=O)N[C@@H](CC(C)C)C(=O)NCC(=O)N[C@@H](CCCCN)C(=O)N[C@@H](Cc1c[nH]cn1)C(=O)N[C@@H](CC(C)C)C(=O)N[C@@H](CC(N)=O)C(=O)N[C@@H](CO)C(=O)N[C@@H](CCSC)C(=O)N[C@@H](CCC(=O)O)C(=O)N[C@@H](CCCN=C(N)N)C(=O)N[C@H](C(=O)N[C@@H](CCC(=O)O)C(=O)N[C@@H](Cc1c[nH]c2ccccc12)C(=O)N[C@@H](CC(C)C)C(=O)N[C@@H](CCCN=C(N)N)C(=O)N[C@@H](CCCCN)C(=O)N[C@@H](CCCCN)C(=O)N[C@@H](CC(C)C)C(=O)N[C@@H](CCC(N)=O)C(=O)N[C@@H](CC(=O)O)C(=O)N[C@H](C(=O)N[C@@H](Cc1c[nH]cn1)C(=O)N[C@@H](CC(N)=O)C(=O)N[C@@H](Cc1ccccc1)C(=O)N[C@H](C(=O)N[C@@H](C)C(N)=O)C(C)C)C(C)C)C(C)C (X6-SEIQLMHNLGKHLNSMERVEWLRKKLQDVHNFVA-NH2) | 9.9 | 15 | 0.8 | 7.9 | 1 |

Stronger by EC50 (OK-1 [1]), values ahead:

| EC50 (OK-1 [1]) [nM] | EC50 (UMR106-06 [5]) [nM] | SMILES | Intrinsic activity (OK-1 [2]) | pKD (OK-1 [3]) | Intrinsic activity (UMR106-06 [4]) |
| --- | --- | --- | --- | --- | --- |
| 6.5 | 4.9 | CC[C@H](C)[C@H](NC(=O)[C@H](CCC(=O)O)NC(=O)[C@H](CO)NC(=O)[C@H](C(C)C)N(C)C(=O)[C@H](C)NC)C(=O)N[C@@H](CCC(N)=O)C(=O)N[C@@H](CC(C)C)C(=O)N[C@@H](CCSC)C(=O)N[C@@H](Cc1c[nH]cn1)C(=O)N[C@@H](CC(N)=O)C(=O)N[C@@H](CC(C)C)C(=O)NCC(=O)N[C@@H](CCCCN)C(=O)N[C@@H](Cc1c[nH]cn1)C(=O)N[C@@H](CC(C)C)C(=O)N[C@@H](CC(N)=O)C(=O)N[C@@H](CO)C(=O)N[C@@H](CCSC)C(=O)N[C@@H](CCC(=O)O)C(=O)N[C@@H](CCCN=C(N)N)C(=O)N[C@H](C(=O)N[C@@H](CCC(=O)O)C(=O)N[C@@H](Cc1c[nH]c2ccccc12)C(=O)N[C@@H](CC(C)C)C(=O)N[C@@H](CCCN=C(N)N)C(=O)N[C@@H](CCCCN)C(=O)N[C@@H](CCCCN)C(=O)N[C@@H](CC(C)C)C(=O)N[C@@H](CCC(N)=O)C(=O)N[C@@H](CC(=O)O)C(=O)N[C@H](C(=O)N[C@@H](Cc1c[nH]cn1)C(=O)N[C@@H](CC(N)=O)C(=O)N[C@@H](Cc1ccccc1)C(=O)N[C@H](C(=O)N[C@@H](C)C(N)=O)C(C)C)C(C)C)C(C)C (H-[NMeA][NMeV]SEIQLMHNLGKHLNSMERVEWLRKKLQDVHNFVA-NH2) | 1 | 8.5 | 1 |
| 5.5 | 5 | CC[C@H](C)[C@H](NC(=O)[C@H](CCC(=O)O)NC(=O)[C@H](CO)NC(=O)[C@H](C)/C=C(\Cl)[C@H](C)N)C(=O)N[C@@H](CCC(N)=O)C(=O)N[C@@H](CC(C)C)C(=O)N[C@@H](CCSC)C(=O)N[C@@H](Cc1c[nH]cn1)C(=O)N[C@@H](CC(N)=O)C(=O)N[C@@H](CC(C)C)C(=O)NCC(=O)N[C@@H](CCCCN)C(=O)N[C@@H](Cc1c[nH]cn1)C(=O)N[C@@H](CC(C)C)C(=O)N[C@@H](CC(N)=O)C(=O)N[C@@H](CO)C(=O)N[C@@H](CCSC)C(=O)N[C@@H](CCC(=O)O)C(=O)N[C@@H](CCCN=C(N)N)C(=O)N[C@H](C(=O)N[C@@H](CCC(=O)O)C(=O)N[C@@H](Cc1c[nH]c2ccccc12)C(=O)N[C@@H](CC(C)C)C(=O)N[C@@H](CCCN=C(N)N)C(=O)N[C@@H](CCCCN)C(=O)N[C@@H](CCCCN)C(=O)N[C@@H](CC(C)C)C(=O)N[C@@H](CCC(N)=O)C(=O)N[C@@H](CC(=O)O)C(=O)N[C@H](C(=O)N[C@@H](Cc1c[nH]cn1)C(=O)N[C@@H](CC(N)=O)C(=O)N[C@@H](Cc1ccccc1)C(=O)N[C@H](C(=O)N[C@@H](C)C(N)=O)C(C)C)C(C)C)C(C)C (X7-SEIQLMHNLGKHLNSMERVEWLRKKLQDVHNFVA-NH2) | 1 | 8.9 | 1 |
| 3.5 | 4.4 | CC[C@H](C)[C@H](NC(=O)[C@H](CCC(=O)O)NC(=O)[C@H](CO)NC(=O)[C@H](C(C)C)N(C)C(=O)[C@H](C)N)C(=O)N[C@@H](CCC(N)=O)C(=O)N[C@@H](CC(C)C)C(=O)N[C@@H](CCSC)C(=O)N[C@@H](Cc1c[nH]cn1)C(=O)N[C@@H](CC(N)=O)C(=O)N[C@@H](CC(C)C)C(=O)NCC(=O)N[C@@H](CCCCN)C(=O)N[C@@H](Cc1c[nH]cn1)C(=O)N[C@@H](CC(C)C)C(=O)N[C@@H](CC(N)=O)C(=O)N[C@@H](CO)C(=O)N[C@@H](CCSC)C(=O)N[C@@H](CCC(=O)O)C(=O)N[C@@H](CCCN=C(N)N)C(=O)N[C@H](C(=O)N[C@@H](CCC(=O)O)C(=O)N[C@@H](Cc1c[nH]c2ccccc12)C(=O)N[C@@H](CC(C)C)C(=O)N[C@@H](CCCN=C(N)N)C(=O)N[C@@H](CCCCN)C(=O)N[C@@H](CCCCN)C(=O)N[C@@H](CC(C)C)C(=O)N[C@@H](CCC(N)=O)C(=O)N[C@@H](CC(=O)O)C(=O)N[C@H](C(=O)N[C@@H](Cc1c[nH]cn1)C(=O)N[C@@H](CC(N)=O)C(=O)N[C@@H](Cc1ccccc1)C(=O)N[C@H](C(=O)N[C@@H](C)C(N)=O)C(C)C)C(C)C)C(C)C (H-A[NMeV]SEIQLMHNLGKHLNSMERVEWLRKKLQDVHNFVA-NH2) | 1 | 8.4 | 0.9 |
